System: uterine gene expression
Assay: Gene expression profiling (HGU133A) in the uterus of ovariectomized monkeys treated with estradiol, tamoxifen or raloxifene
Format: in vivo, cynomolgus monkeys (Macaca fascicularis)
Conditions: uterus, OVX monkeys

O=C(c1ccc(OCCN2CCCCC2)cc1)c1c(-c2ccc(O)cc2)sc2cc(O)ccc12 [raloxifene]
Fold change relative to SHAM control: Fibulin 1: 0.8 fold
Fold change relative to SHAM control: G1 to S phase transition 1: 0.7 fold
Fold change relative to SHAM control: Growth associated protein 43: 0.7 fold
Fold change relative to SHAM control: H2A histone family, member Y: 0.8 fold
Fold change relative to SHAM control: Heparan sulfate proteoglycan 2 (perlecan): 0.6 fold
Fold change relative to SHAM control: Histone H2A.F/Z variant: 1.0 fold
Fold change relative to SHAM control: Insulin-like growth factor binding protein 2, 36 kda: 0.7 fold
Fold change relative to SHAM control: Insulin-like growth factor binding protein 5: 1.1 fold
Fold change relative to SHAM control: Intercrine-alpha, mrna sequence: 0.8 fold
Fold change relative to SHAM control: Laminin, beta 1: 0.8 fold
Fold change relative to SHAM control: Latent transforming growth factor beta binding protein 1: 0.8 fold
Fold change relative to SHAM control: Matrix metalloproteinase 19: 0.2 fold
Fold change relative to SHAM control: Nidogen (enactin): 1.7 fold
Fold change relative to SHAM control: Osteoglycin (osteoinductive factor, mimecan): 0.7 fold
Fold change relative to SHAM control: Peroxiredoxin 1: 0.8 fold
Fold change relative to SHAM control: Pituitary tumour-transforming 1 interacting protein: 0.7 fold
Fold change relative to SHAM control: Procollagen C-endopeptidase enhancer: 0.8 fold
Fold change relative to SHAM control: Procollagen-proline, 2-oxoglutarate 4-dioxygenase (proline 4-hydroxylase), alpha polypeptide II: 0.8 fold
Fold change relative to SHAM control: SET domain, bifurcated 1: 0.8 fold
Fold change relative to SHAM control: SPARC-like 1 (mast9, hevin): 1.1 fold
Fold change relative to SHAM control: Secreted protein, acidic, cysteine-rich (osteonectin): 0.8 fold
Fold change relative to SHAM control: Serine (or cysteine) proteinase inhibitor, clade H (heat shock protein 47), member 1, (collagen binding protein 1): 0.7 fold
Fold change relative to SHAM control: Solute carrier family 22 (organic cation transporter), member 1-like: 0.8 fold
Fold change relative to SHAM control: Solute carrier family 25 (mitochondrial carrier; adenine nucleotide translocator), member 5: 0.8 fold
Fold change relative to SHAM control: Stem cell growth factor; lymphocyte secreted C-type lectin: 0.7 fold
Fold change relative to SHAM control: Tenascin C (hexabrachion): 0.8 fold
Fold change relative to SHAM control: Testis Enhanced Gene Transcript (Bax Inhibitor 1): 1.1 fold
Fold change relative to SHAM control: Thioredoxin interacting protein: 1.7 fold
Fold change relative to SHAM control: Transforming growth factor, beta-induced, 68 kda: 0.8 fold
Fold change relative to SHAM control: Ubiquinol-cytochrome c reductase, Rieske iron-sulfur polypeptide 1: 0.8 fold
Fold change relative to OVX: Insulin receptor (Table 46): 0.9 fold
Fold change relative to OVX: Insulin receptor (Table 51): 0.9 fold
Fold change relative to SHAM control: Insulin receptor (Table 51): 1.4 fold
Fold change relative to OVX: Fibronectin 1 (entry with OVX average 39): 2.3 fold
Fold change relative to OVX: Bone morphogenetic protein 1 (entry with OVX average 79): 1.2 fold
Fold change relative to OVX: Bone morphogenetic protein 1 (entry with OVX average 93): 1.4 fold
Fold change relative to OVX: Insulin-like growth factor 1 (somatomedin C) (entry with OVX average 102): 1.5 fold
Fold change relative to OVX: Fibrillin 1 (Marfan syndrome) (entry with OVX average 124): 2.1 fold
Fold change relative to OVX: Collagen, type I, alpha 2 (entry with OVX average 154): 3.2 fold
Fold change relative to OVX: Insulin-like growth factor 1 (somatomedin C) (entry with OVX average 156): 2.2 fold
Fold change relative to OVX: Solute carrier family 2 (facilitated glucose/fructose transporter), member 5 (entry with OVX average 171): 1.2 fold
Fold change relative to OVX: Solute carrier family 2 (facilitated glucose/fructose transporter), member 5 (entry with OVX average 176): 1.0 fold
Fold change relative to OVX: Collagen, type IV, alpha 1 (entry with OVX average 182): 1.8 fold
Fold change relative to OVX: Cyclin-dependent kinase inhibitor 1C (p57, Kip2) (entry with OVX average 224): 0.9 fold
Fold change relative to OVX: Insulin-like growth factor 1 (somatomedin C) (entry with OVX average 310): 2.3 fold
Fold change relative to OVX: Fibronectin 1 (entry with OVX average 419): 2.2 fold
Fold change relative to OVX: Cyclin-dependent kinase inhibitor 1C (p57, Kip2) (entry with OVX average 527): 1.2 fold
Fold change relative to OVX: Fibronectin 1 (entry with OVX average 586): 2.2 fold
Fold change relative to OVX: Fibronectin 1 (entry with OVX average 648): 1.7 fold
Fold change relative to OVX: Collagen, type IV, alpha 1 (entry with OVX average 690): 1.2 fold
Fold change relative to OVX: Fibronectin 1 (entry with OVX average 757): 1.9 fold
Fold change relative to OVX: Cyclin-dependent kinase inhibitor 1C (p57, Kip2) (entry with OVX average 762): 1.1 fold
Fold change relative to OVX: ATP synthase, H+ transporting, mitochondrial F0 complex, subunit c (subunit 9) isoform 3 (entry with OVX average 811): 1.2 fold
Fold change relative to OVX: Fibrillin 1 (Marfan syndrome) (entry with OVX average 874): 1.5 fold
Fold change relative to OVX: ATP synthase, H+ transporting, mitochondrial F0 complex, subunit c (subunit 9) isoform 3 (entry with OVX average 1007): 1.2 fold
Fold change relative to OVX: Collagen, type III, alpha 1 (Ehlers-Danlos syndrome type IV, autosomal dominant) (entry with OVX average 1084): 1.9 fold
Fold change relative to OVX: Collagen, type I, alpha 2 (entry with OVX average 2757): 2.2 fold
Fold change relative to OVX: Collagen, type III, alpha 1 (Ehlers-Danlos syndrome type IV, autosomal dominant) (entry with OVX average 3445): 2.0 fold
Fold change relative to OVX: H3 histone, family 3A (entry with OVX average 9495): 0.9 fold
Fold change relative to OVX: H3 histone, family 3A (entry with OVX average 9692): 1.0 fold
Fold change relative to SHAM control: Fibronectin 1 (entry with SHAM average 100): 0.9 fold
Fold change relative to SHAM control: Bone morphogenetic protein 1 (entry with SHAM average 143): 0.7 fold
Fold change relative to SHAM control: Cyclin-dependent kinase inhibitor 1C (p57, Kip2) (entry with SHAM average 201): 1.0 fold
Fold change relative to SHAM control: Bone morphogenetic protein 1 (entry with SHAM average 205): 0.6 fold
Fold change relative to SHAM control: Insulin-like growth factor 1 (somatomedin C) (entry with SHAM average 226): 0.7 fold
Fold change relative to SHAM control: Fibrillin 1 (Marfan syndrome) (entry with SHAM average 236): 1.1 fold
Fold change relative to SHAM control: Solute carrier family 2 (facilitated glucose/fructose transporter), member 5 (entry with SHAM average 291): 0.6 fold
Fold change relative to SHAM control: Solute carrier family 2 (facilitated glucose/fructose transporter), member 5 (entry with SHAM average 317): 0.7 fold
Fold change relative to SHAM control: Insulin-like growth factor 1 (somatomedin C) (entry with SHAM average 417): 0.8 fold
Fold change relative to SHAM control: Collagen, type IV, alpha 1 (entry with SHAM average 436): 0.7 fold
Fold change relative to SHAM control: Cyclin-dependent kinase inhibitor 1C (p57, Kip2) (entry with SHAM average 459): 1.4 fold
Fold change relative to SHAM control: Collagen, type I, alpha 2 (entry with SHAM average 493): 1.0 fold
Fold change relative to SHAM control: Insulin-like growth factor 1 (somatomedin C) (entry with SHAM average 581): 1.2 fold
Fold change relative to SHAM control: Cyclin-dependent kinase inhibitor 1C (p57, Kip2) (entry with SHAM average 660): 1.3 fold
Fold change relative to SHAM control: Fibronectin 1 (entry with SHAM average 920): 1.0 fold
Fold change relative to SHAM control: ATP synthase, H+ transporting, mitochondrial F0 complex, subunit c (subunit 9) isoform 3 (entry with SHAM average 1045): 0.9 fold
Fold change relative to SHAM control: Fibronectin 1 (entry with SHAM average 1089): 1.2 fold
Fold change relative to SHAM control: Collagen, type IV, alpha 1 (entry with SHAM average 1143): 0.7 fold
Fold change relative to SHAM control: Fibronectin 1 (entry with SHAM average 1288): 0.9 fold
Fold change relative to SHAM control: Fibronectin 1 (entry with SHAM average 1301): 1.1 fold
Fold change relative to SHAM control: ATP synthase, H+ transporting, mitochondrial F0 complex, subunit c (subunit 9) isoform 3 (entry with SHAM average 1355): 0.9 fold
Fold change relative to SHAM control: Fibrillin 1 (Marfan syndrome) (entry with SHAM average 1388): 1.0 fold
Fold change relative to SHAM control: Collagen, type III, alpha 1 (Ehlers-Danlos syndrome type IV, autosomal dominant) (entry with SHAM average 2992): 0.7 fold
Fold change relative to SHAM control: Collagen, type III, alpha 1 (Ehlers-Danlos syndrome type IV, autosomal dominant) (entry with SHAM average 7354): 1.0 fold
Fold change relative to SHAM control: Collagen, type I, alpha 2 (entry with SHAM average 7758): 0.8 fold
Fold change relative to SHAM control: H3 histone, family 3A (entry with SHAM average 9408): 0.9 fold
Fold change relative to SHAM control: H3 histone, family 3A (entry with SHAM average 10239): 1.0 fold

From patent US20130040882A1, “USE OF FIBROBLAST GROWTH FACTOR FRAGMENTS” (NOVARTIS AG, priority 2003, published 2013)
